Data from patent publication US9493466B2, “Treatment of cancer with TOR kinase inhibitors” (Signal Pharmaceuticals, LLC, priority 2011, dated 2016).

Tests used:
U87MG tumors = assay: Ki67 immunohistochemistry in U87MG tumors; assay type: in vivo, mice; settings: 5 mg/kg BID oral for 4 days; p<0.001
Description: Mechanism of action studies. To determine the mechanism of action of Compound 1, mice bearing U87MG tumors of approximately 500 mm^3 were dosed orally with vehicle or Compound 1 at 5 mg/kg BID for 4 days. The positive control, rapamycin, was dosed at 4 mg/kg Q3D for 4 days. Two hours after the 7th dose of Compound 1 on day 4, animals were euthanized and tumors were dissected out and snap frozen in liquid nitrogen. In the rapamycin-treated group tumors were collected at 2 hour after the 2nd dose on day 4. The tumors were processed for immunohistochemistry (IHC) or TUNEL.
Immunohistochemistry. Five to ten micron (5-10 μm) thick cryostat sections were used for IHC. The expression of the cell proliferation marker Ki67 was evaluated by IHC using anti-Ki67 antibody. […] The sections were visualized with a Nikon E800 microscope equipped with fluorescence detection equipment and a digital camera attached to a computer.
Quantitation of Immunohistochemistry. The tissues sections processed for apoptosis or immunostained for proliferating cells (Ki67) or blood vessels were quantitated using Metamorph software. Using 20× objective, 5 different fields from each section, 2-4 sections from each tumor, and 3-4 tumors from each treatment group or control were used for quantitation. The area of interest was expressed as the percent threshold area of the total area. […]

NCI-H929 tumor = assay: Human plasma cell myeloma (NCI-H929) study; assay type: in vivo, SCID mice; settings: FIG. 19
Description: Human Plasma Cell Myeloma (NCI-H929) Study. Female SCID mice (Fox Chase SCID®, CB17/Icr-Prkce^scid, Charles River) were 8 weeks old at the beginning of the study. The animals were fed ad libitum water (reverse osmosis, 1 ppm Cl) and NIH 31 Modified and Irradiated Lab Diet® consisting of 18.0% crude protein, 5.0% crude fat, and 5.0% crude fiber. […]
The NCI-H929 tumor cells used for implantation were harvested during log phase growth and resuspended at a concentration of 5×10^7 cells/mL in 50% Matrigel (BD Biosciences). […] Tumor size, in mm^3, was calculated from: […]
Compound 1 was administered via oral gavage (p.o.) once daily for twenty-eight days (qd×28). Treatment efficacy was determined from the calculated tumor volumes on Day 12. MTV(n), the median tumor volume for the number of animals, n, evaluable on the day of analysis, was determined for each group. Percent tumor growth inhibition (% TGI) was defined as the difference between the MTV of the control group and the MTV of the drug-treated group, expressed as a percentage of the MTV of the control group: […]
Each animal was to be euthanized when its neoplasm reached the endpoint volume (2000 mm^3). For each animal whose tumor reached the endpoint volume, the time to endpoint (TTE) was calculated by the following equation: […]

SMILES: CO[C@H]1CC[C@H](N2C(=O)CNc3ncc(-c4ccc(C(C)(C)O)nc4)nc32)CC1 [Compound 1, 7-(6-(2-hydroxypropan-2-yl)pyridin-3-yl)-1-((1r,4r)-4-methoxycyclohexyl)-3,4-dihydropyrazino-[2,3-b]pyrazin-2(1H)-one]
- reduction in the number of proliferating cells (Ki67) compared with vehicle (U87MG tumors): 59%
- tumor growth delay (NCI-H929 tumor; 3 mg/kg and 10 mg/kg p.o. qd×28): Significant tumor growth delay
- tumor growth inhibition (NCI-H929 tumor; 10 mg/kg p.o. qd×28): Significant tumor growth inhibition
